Measurements from the OPERA property sets (Mansouri et al. 2018).

Compound	ready biodegradability	melting point [°C]	boiling point [°C]	log10 vapour pressure (mmHg)	log10 Henry constant (atm·m³/mol)	log10 Koa	log10 Koc (L/kg)
Nc1ccccc1S(=O)(=O)O	not readily biodegradable						
CCN(CC)c1nc(Cl)nc(N(CC)CC)n1		27					
O=C(O)Cc1ccc(O)cc1		152					
BrCC(Br)Br		-29.3	189				
CCOc1ccc(CC)cc1			210				
O=C(O)COc1c(F)c(F)c(F)c(F)c1F		109					
O=C(Nc1ccccc1)c1ccccc1		163					
ClCCOCCOCCCl	not readily biodegradable	-31.5	232	-1.22			
CC(=O)OCCC(C)C		-78.5	142	0.748	-3.23	3.94	
CC1CCCCS1 (stereo unspecified)		-58	153				
CC[C@@H](C(=O)[C@@H](C)[C@@H](O)[C@H](C)[C@@H]1O[C@@H]([C@@H](CC)C(=O)O)CC[C@@H]1C)[C@H]1O[C@]2(C=C[C@@H](O)[C@]3(CC[C@@](C)([C@H]4CC[C@](O)(CC)[C@H](C)O4)O3)O2)[C@H](C)C[C@@H]1C		113					
CN(C)CCN1C(=O)c2ccccc2Nc2cc(Cl)ccc21		166					
C[C@@H]([C@H](O)c1ccccc1)N(C)C		87.5					
O=C(CI)c1ccccc1		34.4					
CCC1(c2ccccc2)CCC(=O)NC1=O (stereo unspecified)		84					
CC(=O)OCC(=O)[C@@]12OC(C)(C)O[C@@H]1C[C@H]1[C@@H]3C[C@H](F)C4=CC(=O)C=C[C@]4(C)[C@@]3(F)[C@@H](O)C[C@@]12C		309					
C1CC2CCC1CC2				0.523			
CC(C)OCCO	not readily biodegradable		145		-6.04		
CCC(C)c1cc([N+](=O)[O-])cc([N+](=O)[O-])c1O (stereo unspecified)	not readily biodegradable	40	332				2.7
CCCCCCOCCOCCO		-40	260	-2.93			
CCC(C)(CC)CC		-90.9	118	1.36			

Compound	ready biodegradability	melting point [°C]	boiling point [°C]	log10 vapour pressure (mmHg)	log10 Henry constant (atm·m³/mol)	log10 Koa	log10 Koc (L/kg)
CCN(N)CC			99				
CN1CCN(C(=O)OC2c3nccnc3C(=O)N2c2ccc(Cl)cn2)CC1 (stereo unspecified)		178					
CON=C(Cc1cccnc1)c1ccc(Cl)cc1Cl				-4.89			
O=C(O)C(F)(F)C(F)(F)C(F)(F)C(F)(F)C(F)(F)C(F)(F)C(F)(F)F	not readily biodegradable	55	189	-0.28			
CC[C@@H]1C(=O)OC[C@@H]1Cc1cncn1C.Cl		204					
C[Si](C)(C)Oc1ccccc1		-55	119				
O=C1CCCCCCCCCCCCCCO1		32					
Cl.Nc1ccccc1		198					
C=CCC(C)(O)CC=C			158				
COC(=O)CCC(C)=O			196				
CC1(C)CC(N)CC(C)(C)N1		17	188				
CC(S)C(=O)NCC(=O)O (stereo unspecified)		96					
Nc1cccnc1	not readily biodegradable	64.5	252				
CCC=CCCO			156				
CCCCCCCCCC=O	readily biodegradable	-5	208	-0.987	-2.74		
COC(=O)c1cccc(C)c1S(=O)(=O)NC(=O)Nc1nc(OCC(F)(F)F)nc(N(C)C)n1							1.84
CCC(=O)OC(=O)CC	readily biodegradable	-45	170	0.134			
N#CCc1ccccc1F			232				
CCC(C)(O)C#CC(C)(O)CC (stereo unspecified)			135				
COc1ccccc1-c1ccccc1OC			308				
CCC(C)CC(C)=O (stereo unspecified)			144				

Compound	ready biodegradability	melting point [°C]	boiling point [°C]	log10 vapour pressure (mmHg)	log10 Henry constant (atm·m³/mol)	log10 Koa	log10 Koc (L/kg)
CN1C(=O)CN=C(c2ccccc2)c2cc([N+](=O)[O-])ccc21		82					
CC=CC(OCC)OCC			148				
CCc1cccc(C(C)=O)c1		-20		0.357			
C[N+](C)(C)OP(=O)([O-])OP(=O)(O)OC[C@H]1O[C@@H](n2ccc(N)nc2=O)[C@H](O)[C@@H]1O	readily biodegradable						
COc1ccc(C(=CC(=O)N2CCOCC2)c2ccc(Cl)cc2)cc1OC		148		-8.13			
Clc1ccc2c(Cl)ccc(Cl)c2c1Cl						8.4	
C[NH+](C)CCC(c1ccc(Cl)cc1)c1ccccn1.O=C([O-])/C=C\C(=O)O (stereo unspecified)		132					
Cc1cc(C(=O)O)ccc1N		170					
C=CC(=O)OCC(CO)(COC(=O)C=C)COC(=O)C=C	not readily biodegradable						
OCc1cccc(CO)c1		57					
CCC(=O)c1ccc2ccccc2c1		60	313				
Clc1cccc(-c2ccccc2)c1		16	284	-2.13	-3.21	6.82	
CC(C)COCC(C)O (stereo unspecified)			165	0.114			
CCCCCCC(=O)c1ccccc1		16.4	283				
On1nnc2ccccc21		158					
COC(=O)c1ccccc1C(=O)c1ccccc1	not readily biodegradable	52	351				
COCC(=O)OC			131				
Nc1c(Cl)cc(C(=O)O)cc1Cl		292					
O=C(NNc1ccccc1)NNc1ccccc1		170					
Oc1c(Cl)cc(Cl)c2ccccc12	not readily biodegradable	108					
C1CCNC1		-57.8	86.5	1.8	-5.62	4.07	
